Assay results published in US4857547A, “Novel HMG-CoA reductase inhibitors” (Merck & Co., Inc., priority 1988, dated 1989).

biological target: T1, HMG-CoA reductase (Rattus norvegicus, UniProt P51639); test: intrinsic HMG-CoA reductase inhibition, in vitro protocol (J. Med. Chem., 28, p. 347-358 (1985)); format: biochemical; settings: compactin (mevastatin) assigned a value of 100; IC50 of test compound compared with that of mevastatin determined simultaneously
T1 sequence (P51639 1-887): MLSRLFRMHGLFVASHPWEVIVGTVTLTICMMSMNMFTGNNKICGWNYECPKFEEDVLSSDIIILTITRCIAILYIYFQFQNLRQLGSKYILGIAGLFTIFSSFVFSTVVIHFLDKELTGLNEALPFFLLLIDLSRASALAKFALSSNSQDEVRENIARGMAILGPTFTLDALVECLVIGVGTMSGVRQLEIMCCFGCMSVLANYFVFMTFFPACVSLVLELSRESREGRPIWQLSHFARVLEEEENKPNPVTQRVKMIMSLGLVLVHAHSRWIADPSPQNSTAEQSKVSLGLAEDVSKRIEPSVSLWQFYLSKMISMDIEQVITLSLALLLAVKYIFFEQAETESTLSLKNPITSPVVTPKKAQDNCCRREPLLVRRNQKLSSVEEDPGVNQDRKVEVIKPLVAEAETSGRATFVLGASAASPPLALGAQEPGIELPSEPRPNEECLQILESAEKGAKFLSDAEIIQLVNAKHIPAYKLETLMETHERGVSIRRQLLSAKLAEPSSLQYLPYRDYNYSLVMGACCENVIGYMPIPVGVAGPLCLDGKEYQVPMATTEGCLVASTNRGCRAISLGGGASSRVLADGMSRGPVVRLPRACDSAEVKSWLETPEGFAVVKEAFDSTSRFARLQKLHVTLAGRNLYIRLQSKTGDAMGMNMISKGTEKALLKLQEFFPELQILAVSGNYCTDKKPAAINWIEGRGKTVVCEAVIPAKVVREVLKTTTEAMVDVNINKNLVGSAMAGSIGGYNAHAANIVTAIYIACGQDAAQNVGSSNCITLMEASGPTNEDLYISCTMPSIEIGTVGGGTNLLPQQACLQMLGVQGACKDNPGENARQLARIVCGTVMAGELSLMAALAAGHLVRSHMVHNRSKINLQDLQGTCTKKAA
Description: The intrinsic HMG-CoA reductase inhibition activity of the claimed compounds is measured in the in vitro protocol published in J. Med. Chem., 28, p. 347-358 (1985).
For estimation of relative inhibitory potencies, compactin (i.e., mevastatin) was assigned a value of 100 and the IC50 value of the test compound was compared with that of mevastatin (compactin) determined simultaneously in the published in vitro protocol.

SMILES	Relative Potency
CCC(C)(C)C(=O)O[C@H]1CC(C(=O)O)=CC2=CC[C@H](C)[C@H](CC[C@@H]3C[C@@H](O)CC(=O)O3)[C@H]21 [Example 2, 6(R)-[2-[8(S)-(2,2-dimethylbutyryloxy)-2(S)-methyl-6-carboxy-1,2,3,7,8,8a(R)-hexahydronaphthyl-1(S)]-ethyl]-4(R)-hydroxy-3,4,5,6-tetrahydro-2H-pyran-2-one]	100
CCC(C)(C)C(=O)O[C@H]1CC(CO)=CC2=CC[C@H](C)[C@H](CC[C@@H]3C[C@@H](O)CC(=O)O3)[C@H]21 [Example 1, 6(R)-[2-[8(S)-(2,2-dimethylbutyryloxy)-2(S)-methyl-6-hydroxymethyl-1,2,3,7,8,8a(R)-hexahydronaphthyl-1(S)]-ethyl]-4(R)-hydroxy-3,4,5,6-tetrahydro-2H-pyran-2-one]	75
CCC(C)(C)C(=O)O[C@H]1CC(COC(=O)Nc2ccccc2)=CC2=CC[C@H](C)[C@H](CC[C@@H]3C[C@@H](O)CC(=O)O3)[C@H]21 [Example 4, 6(R)-[2-[8(S)-(2,2-dimethylbutyryloxy)-2(S)-methyl-6-phenylaminocarbonyloxymethyl-1,2,3,7,8,8a(R)-hexahydronaphthyl-1(S)]-ethyl]-4(R)-hydroxy-3,4,5,6-tetrahydro-2H-pyran-2-one]	200
